In ChEMBL document CHEMBL1201862, “PubChem BioAssay data set” (2004):
Calls of active or inactive are those of the source.

Columns and labels:
[1] = target: T1, Sentrin-specific protease 8 (Homo sapiens, UniProt Q96LD8); format: functional
T1 sequence (Q96LD8 whole entry): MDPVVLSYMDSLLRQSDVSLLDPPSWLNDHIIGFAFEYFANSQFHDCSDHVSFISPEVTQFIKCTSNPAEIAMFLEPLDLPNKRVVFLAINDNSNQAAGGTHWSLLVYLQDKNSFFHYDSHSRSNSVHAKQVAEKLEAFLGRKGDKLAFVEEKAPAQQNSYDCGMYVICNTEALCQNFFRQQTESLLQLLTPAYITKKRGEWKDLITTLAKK

[2] = target: T1, Sentrin-specific protease 8; format: functional; remark: listed apart in the source
[3] = Counterscreen for inhibitors of Trypanosoma brucei methionyl tRNA synthetase (MetRS): Luminescence-based cell-based high throughput dose response assay to identify compounds that are cytotoxic to Jurkat human T lymphocyte cells.; format: functional
[4] = target: T2, Methionyl-tRNA synthetase, putative (Trypanosoma brucei brucei, UniProt Q38C91); format: functional, Trypanosoma brucei brucei strain 927/4 GUTat10.1
T2 sequence (Q38C91 whole entry): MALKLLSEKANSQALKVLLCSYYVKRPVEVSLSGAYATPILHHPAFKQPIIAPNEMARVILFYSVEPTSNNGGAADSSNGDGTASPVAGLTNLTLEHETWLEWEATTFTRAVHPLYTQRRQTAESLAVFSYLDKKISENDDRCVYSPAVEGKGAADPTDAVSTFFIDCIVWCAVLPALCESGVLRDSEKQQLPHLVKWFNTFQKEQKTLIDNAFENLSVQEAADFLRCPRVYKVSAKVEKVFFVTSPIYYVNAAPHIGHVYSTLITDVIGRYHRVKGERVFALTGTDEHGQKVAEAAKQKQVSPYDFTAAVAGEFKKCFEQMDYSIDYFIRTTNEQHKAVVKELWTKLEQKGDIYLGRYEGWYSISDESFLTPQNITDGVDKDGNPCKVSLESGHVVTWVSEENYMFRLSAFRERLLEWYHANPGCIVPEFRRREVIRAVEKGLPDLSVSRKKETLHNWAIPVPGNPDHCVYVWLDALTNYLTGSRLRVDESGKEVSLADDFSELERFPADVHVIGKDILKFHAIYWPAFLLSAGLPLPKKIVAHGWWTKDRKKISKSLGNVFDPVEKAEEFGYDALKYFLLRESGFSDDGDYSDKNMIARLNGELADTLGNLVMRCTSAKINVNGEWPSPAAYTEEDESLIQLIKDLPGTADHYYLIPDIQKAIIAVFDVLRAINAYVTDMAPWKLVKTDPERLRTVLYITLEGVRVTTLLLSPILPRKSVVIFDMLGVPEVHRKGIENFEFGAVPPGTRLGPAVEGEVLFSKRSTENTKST

[5] = HeLa cell cytotoxicity, dose response, cytotoxicity control for MgcRacGAP inhibitor project (AID 624300); format: functional
[6] = target: Induced myeloid leukemia cell differentiation protein Mcl-1 (Homo sapiens, UniProt Q07820); format: functional
[7] = target: T3, Rac GTPase-activating protein 1 (Homo sapiens, UniProt Q9H0H5); test: MgcRacGAP GTPase-activating activity inhibitors, confirmation, biochemical, ADP Hunter fluorescence, primary and confirmatory (AID 624330); format: functional
T3 sequence (Q9H0H5 whole entry): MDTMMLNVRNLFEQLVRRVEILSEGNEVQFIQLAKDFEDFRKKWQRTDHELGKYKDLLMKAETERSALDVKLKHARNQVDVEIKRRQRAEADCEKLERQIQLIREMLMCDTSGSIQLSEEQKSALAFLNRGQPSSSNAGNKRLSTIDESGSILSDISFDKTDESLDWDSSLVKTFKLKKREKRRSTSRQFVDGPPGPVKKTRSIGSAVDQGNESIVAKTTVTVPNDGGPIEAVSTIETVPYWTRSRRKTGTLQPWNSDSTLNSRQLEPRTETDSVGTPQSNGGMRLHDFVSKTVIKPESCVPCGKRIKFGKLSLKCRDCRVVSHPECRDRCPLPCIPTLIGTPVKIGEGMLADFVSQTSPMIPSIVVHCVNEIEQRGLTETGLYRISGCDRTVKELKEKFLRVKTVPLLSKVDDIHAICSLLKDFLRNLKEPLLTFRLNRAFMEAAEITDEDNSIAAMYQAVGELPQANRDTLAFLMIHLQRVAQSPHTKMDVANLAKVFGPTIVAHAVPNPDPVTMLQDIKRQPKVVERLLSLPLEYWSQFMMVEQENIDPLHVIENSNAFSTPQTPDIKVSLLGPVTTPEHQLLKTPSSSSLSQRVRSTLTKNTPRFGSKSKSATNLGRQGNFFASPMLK

[8] = inhibitors of PGC1a acetylation in cells, dose response, cell-based, cherry-picked samples (AID 720514); format: functional;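 further: potency may reflect raised or lowered acetylation signal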
[9] = Fluorescence-based cell-based high throughput dose response assay for inhibitors of the interaction of nucleotide-binding oligomerization domain containing 2 (NOD2) and the receptor-interacting serine-threonine kinase 2 (RIPK2).; format: functional; conditions: Homo sapiens
[10] = target: T4, Replicative DNA helicase DnaB (Mycobacterium tuberculosis, UniProt P9WMR3); test: DnaB intein splicing inhibitors, dose response, biochemical, cell-free fluorescence (AID 449749); format: functional
T4 sequence (P9WMR3 whole entry): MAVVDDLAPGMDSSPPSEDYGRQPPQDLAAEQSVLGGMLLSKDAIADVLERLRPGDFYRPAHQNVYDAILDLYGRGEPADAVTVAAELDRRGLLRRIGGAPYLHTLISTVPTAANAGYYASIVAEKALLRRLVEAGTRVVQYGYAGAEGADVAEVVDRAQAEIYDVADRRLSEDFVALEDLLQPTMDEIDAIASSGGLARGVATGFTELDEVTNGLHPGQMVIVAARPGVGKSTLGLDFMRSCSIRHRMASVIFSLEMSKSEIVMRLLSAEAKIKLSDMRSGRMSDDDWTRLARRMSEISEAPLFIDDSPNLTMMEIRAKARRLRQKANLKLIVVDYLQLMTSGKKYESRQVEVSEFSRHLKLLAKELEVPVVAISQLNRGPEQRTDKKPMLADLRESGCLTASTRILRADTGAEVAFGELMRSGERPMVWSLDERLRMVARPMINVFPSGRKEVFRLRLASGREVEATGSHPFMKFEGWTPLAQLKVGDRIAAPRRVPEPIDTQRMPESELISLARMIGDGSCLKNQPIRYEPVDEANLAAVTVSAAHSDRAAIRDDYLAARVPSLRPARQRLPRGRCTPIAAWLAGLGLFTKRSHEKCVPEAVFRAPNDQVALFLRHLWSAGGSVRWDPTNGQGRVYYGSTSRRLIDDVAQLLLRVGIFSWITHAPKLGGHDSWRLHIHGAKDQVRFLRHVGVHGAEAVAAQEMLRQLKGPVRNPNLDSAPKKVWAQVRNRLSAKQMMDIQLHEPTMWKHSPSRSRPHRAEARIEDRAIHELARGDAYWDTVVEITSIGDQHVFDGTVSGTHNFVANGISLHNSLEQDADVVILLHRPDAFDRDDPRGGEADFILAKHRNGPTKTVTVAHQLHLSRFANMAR

[11] = HepG2 cell cytotoxicity, dose response, cytotoxicity control for Shn3 inhibitor project, CellTiter-Glo, cherry-picked (AID 624134); format: functional, cell-based
[12] = Shn3 3'UTR reporter inhibitors, dose response, cell-based, Clone20 osteoblasts, firefly luciferase, cherry-picked (AID 624132); format: functional;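 further: firefly luciferase luminescence from reporter carrying the Shn3 3'UTR in osteoblasts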
Protein RecA = target: T5, Protein RecA (Mycobacterium tuberculosis, UniProt P9WHJ3); test: Fluorescence Cell-Free Homogeneous Dose Retest to Identify Inhibitors of RecA-Intein Splicing Activity. [Related pubchem assays (depositor defined):AID2097, AID2223, AID489010, AID492950]; format: functional
T5 sequence (P9WHJ3 whole entry): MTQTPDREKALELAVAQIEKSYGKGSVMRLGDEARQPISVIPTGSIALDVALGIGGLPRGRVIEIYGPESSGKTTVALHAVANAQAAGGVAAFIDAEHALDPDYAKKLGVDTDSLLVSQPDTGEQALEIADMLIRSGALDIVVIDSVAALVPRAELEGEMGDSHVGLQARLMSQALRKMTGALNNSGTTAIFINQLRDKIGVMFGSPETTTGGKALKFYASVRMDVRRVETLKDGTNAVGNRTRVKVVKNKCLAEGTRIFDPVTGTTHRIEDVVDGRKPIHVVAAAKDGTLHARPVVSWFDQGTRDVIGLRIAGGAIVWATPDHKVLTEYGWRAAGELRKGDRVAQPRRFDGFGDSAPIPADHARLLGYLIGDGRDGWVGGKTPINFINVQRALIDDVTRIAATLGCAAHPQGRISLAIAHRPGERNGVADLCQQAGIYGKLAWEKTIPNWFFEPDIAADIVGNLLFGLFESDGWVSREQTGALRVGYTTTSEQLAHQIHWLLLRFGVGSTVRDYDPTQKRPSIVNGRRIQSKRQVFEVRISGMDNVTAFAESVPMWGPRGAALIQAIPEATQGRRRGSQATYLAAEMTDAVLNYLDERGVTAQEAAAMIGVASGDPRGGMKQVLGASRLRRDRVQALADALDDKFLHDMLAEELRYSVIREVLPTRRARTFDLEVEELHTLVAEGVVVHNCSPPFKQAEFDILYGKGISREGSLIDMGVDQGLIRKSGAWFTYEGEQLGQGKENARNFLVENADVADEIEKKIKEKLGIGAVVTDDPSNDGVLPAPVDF

[13] = target: FAD-linked sulfhydryl oxidase ALR (Homo sapiens, UniProt P55789); test: inhibitors of human ALR sulfhydryl oxidase, dose response, biochemical, H2O2 detection, luminescence, cherry-pick (AID 493248)
[14] = control 3'UTR Renilla luciferase suppression, dose response, counter-screen for Shn3 inhibitor project, cell-based, Clone20-Shn3RL, cherry-picked (AID 624133); format: functional
Beta Lactamase = Beta Lactamase (Pseudomonas aeruginosa, UniProt Q932Y6); test: beta-lactamase reporter inhibitor potency, dose response, artefact control for NOD2-RIPK2 interaction inhibitor project, BLA reporter cells, FRET fluorescence (AID 651552); format: functional, cell-based
[15] = target: T6, Zinc finger protein mex-5 (Caenorhabditis elegans, UniProt Q9XUB2); test: MEX-5/TCR-2 RNA interaction inhibitors, dose response, biochemical, C. elegans, fluorescence polarization (AID 1960)
T6 sequence (Q9XUB2 whole entry): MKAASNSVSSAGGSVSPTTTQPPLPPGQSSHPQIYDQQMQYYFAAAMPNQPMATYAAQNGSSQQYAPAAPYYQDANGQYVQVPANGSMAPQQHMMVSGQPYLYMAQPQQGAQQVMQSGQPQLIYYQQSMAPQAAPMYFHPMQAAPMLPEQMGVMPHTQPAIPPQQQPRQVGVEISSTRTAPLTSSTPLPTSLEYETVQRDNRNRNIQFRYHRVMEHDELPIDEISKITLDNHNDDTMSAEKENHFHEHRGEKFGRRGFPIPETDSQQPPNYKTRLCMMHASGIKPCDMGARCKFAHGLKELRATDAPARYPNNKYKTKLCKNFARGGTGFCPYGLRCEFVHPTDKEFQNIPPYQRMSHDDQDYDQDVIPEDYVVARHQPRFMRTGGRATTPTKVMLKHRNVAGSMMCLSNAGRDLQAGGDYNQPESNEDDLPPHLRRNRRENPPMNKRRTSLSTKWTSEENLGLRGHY

[16] = Luminescence Cell-Based Dose Retest to Confirm Inhibitors of Cancer Stem Cells. [Related pubchem assays (depositor defined):AID2717, AID2721]; format: functional; conditions: Homo sapiens
[17] = target: T7, RNA-binding protein pos-1 (Caenorhabditis elegans, UniProt G5EF15); test: inhibitors of POS-1/mex-3 RNA binding, dose response, biochemical, fluorescence polarization (AID 1964);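 further: purified POS-1 fused to maltose binding protein made in E. coli; potency of compounds blocking POS-1 binding to fluorescent RNA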
T7 sequence (G5EF15 whole entry): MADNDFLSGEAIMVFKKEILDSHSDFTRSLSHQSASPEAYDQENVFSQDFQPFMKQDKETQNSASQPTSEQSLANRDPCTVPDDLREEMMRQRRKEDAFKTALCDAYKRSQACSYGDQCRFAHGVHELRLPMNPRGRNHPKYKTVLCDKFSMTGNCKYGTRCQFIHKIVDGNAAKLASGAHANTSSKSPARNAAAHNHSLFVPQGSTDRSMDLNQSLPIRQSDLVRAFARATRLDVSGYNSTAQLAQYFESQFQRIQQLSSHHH

Beta Lactamase, sequence (Q932Y6 whole entry): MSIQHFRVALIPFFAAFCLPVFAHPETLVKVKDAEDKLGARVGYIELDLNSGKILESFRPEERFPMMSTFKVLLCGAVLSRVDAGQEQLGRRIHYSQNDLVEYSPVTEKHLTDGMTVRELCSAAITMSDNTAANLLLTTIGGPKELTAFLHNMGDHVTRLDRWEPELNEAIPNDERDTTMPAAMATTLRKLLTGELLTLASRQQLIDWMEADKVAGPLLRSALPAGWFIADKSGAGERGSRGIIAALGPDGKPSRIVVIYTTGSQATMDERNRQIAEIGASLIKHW
FAD-linked sulfhydryl oxidase ALR, sequence (P55789 whole entry): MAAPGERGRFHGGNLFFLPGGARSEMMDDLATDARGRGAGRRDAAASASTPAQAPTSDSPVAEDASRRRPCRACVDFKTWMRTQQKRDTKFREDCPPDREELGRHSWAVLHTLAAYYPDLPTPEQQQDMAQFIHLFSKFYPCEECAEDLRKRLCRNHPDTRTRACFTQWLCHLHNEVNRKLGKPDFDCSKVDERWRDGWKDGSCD
Induced myeloid leukemia cell differentiation protein Mcl-1, sequence (Q07820 whole entry): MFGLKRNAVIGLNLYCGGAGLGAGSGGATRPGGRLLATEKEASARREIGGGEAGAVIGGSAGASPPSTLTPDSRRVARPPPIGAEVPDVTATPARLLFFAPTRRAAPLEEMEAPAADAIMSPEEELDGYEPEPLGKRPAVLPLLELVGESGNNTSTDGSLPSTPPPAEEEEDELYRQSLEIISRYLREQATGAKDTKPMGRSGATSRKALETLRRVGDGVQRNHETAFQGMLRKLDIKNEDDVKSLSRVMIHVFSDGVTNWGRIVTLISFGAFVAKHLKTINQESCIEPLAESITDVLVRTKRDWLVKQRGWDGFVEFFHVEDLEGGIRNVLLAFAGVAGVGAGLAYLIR

Compound: CSc1nnc(C)c(/C=C/NOCc2cccc(F)c2)n1
- IC50 [1]: 69.9 µM (inactive)
- IC50 [2]: 14 µM (active)

Compound: Clc1ccccc1-c1ccc2ncnc(NCc3ccc4c(c3)OCO4)c2c1
- IC50 [3]: 83.3 µM (inactive)
- IC50 [4]: 30 µM (inactive)

Compound: CCOC(=O)CSc1nc(N)c(C(=O)Nc2ccc(N(C)C)cc2)s1
- CC50 [5]: 100 µM (active)
- IC50 [6]: < 0.4 µM (active)
- IC50 [7]: 31.7 µM (active)

Compound: O=C(NCc1ccc2c(c1)OCO2)c1nc(S(=O)(=O)Cc2ccccc2)ncc1Cl
- AC50 [8]: 21.7 µM (active)
- IC50 [9]: 4.89 µM (active)
- AC50 [10]: 2.27 µM (active)
- AC50 [11]: 40.5 µM (active)
- AC50 [12]: 6.4 µM (active)
- EC50 (Protein RecA): 4.16 µM (active)
- AC50 [13]: 0.505 µM (active)
- AC50 [14]: 21.7 µM (active)
- IC50 (Beta Lactamase): 32.5 µM (inactive)

Compound: COc1ccc(-c2[nH][nH]c(=O)c2NC(=O)c2ccc([N+](=O)[O-])cc2)cc1
- IC50 [1]: 47.2 µM (active)
- IC50 [2]: 65.5 µM (inactive)

Compound: CCNC(=O)O/N=C1\CCCCC1c1ccc([N+](=O)[O-])cc1[N+](=O)[O-] (configuration not stated)
- IC50 [1]: 14.4 µM (active)
- IC50 [2]: 27.2 µM (active)

Compound: Cc1cc(-c2ccccc2)nc(N/N=C/c2ccc(O)cc2O)n1
- CC50 [5]: 100 µM (active)
- EC50 [15]: 54 µM (active)
- AC50 [16]: 6.35 µM (active)
- EC50 [17]: > 300 µM (not active)
- IC50 [7]: 69.1 µM (active)

Compound: COc1cc(/C=N/NC(=S)Nc2cccc(S(=O)(=O)N(C)C)c2)ccc1O
- CC50 [5]: 100 µM (active)
- IC50 [7]: 29 µM (active)
